SMILES strings stand for the structures.

The results in this text go back to US12630548B2, “Azetidine derivatives for the treatment of integrin associated diseases” (The University of Nottingham, priority 2020, dated 2026).

This assay concerns the target ανβ6 (Homo sapiens, UniProt P06756+P18564). Put plainly: Cell adhesion assay, αvβ6 integrin. The format is cell-based. To be noted: cell adhesion data; read-out: ανβ6 IC50. Here is the method:
The assays were performed as described in the literature (P. A. Procopiou, N. A. Anderson, J. Barrett, T. N. Barrett, M. H. J. Crawford, B. J. Fallon, A. P. Hancock, J. Le, S. Lemma, R. P. Marshall, J. Morrell, J. M. Pritchard, J. E. Rowedder, P. Saklatvala, R. J. Slack, S. L. Sollis, C. J. Suckling, L. R. Thorp, G. Vitulli, et al., J. Med. Chem. 2018, 61, 8417-8443; S. B. Ludbrook, S. T. Barry, C. J. Delves, C. M. T. Horgan, Biochem. J. 2003, 369, 311-318).

Chain of ανβ6 (P06756 31-889 limits assumed): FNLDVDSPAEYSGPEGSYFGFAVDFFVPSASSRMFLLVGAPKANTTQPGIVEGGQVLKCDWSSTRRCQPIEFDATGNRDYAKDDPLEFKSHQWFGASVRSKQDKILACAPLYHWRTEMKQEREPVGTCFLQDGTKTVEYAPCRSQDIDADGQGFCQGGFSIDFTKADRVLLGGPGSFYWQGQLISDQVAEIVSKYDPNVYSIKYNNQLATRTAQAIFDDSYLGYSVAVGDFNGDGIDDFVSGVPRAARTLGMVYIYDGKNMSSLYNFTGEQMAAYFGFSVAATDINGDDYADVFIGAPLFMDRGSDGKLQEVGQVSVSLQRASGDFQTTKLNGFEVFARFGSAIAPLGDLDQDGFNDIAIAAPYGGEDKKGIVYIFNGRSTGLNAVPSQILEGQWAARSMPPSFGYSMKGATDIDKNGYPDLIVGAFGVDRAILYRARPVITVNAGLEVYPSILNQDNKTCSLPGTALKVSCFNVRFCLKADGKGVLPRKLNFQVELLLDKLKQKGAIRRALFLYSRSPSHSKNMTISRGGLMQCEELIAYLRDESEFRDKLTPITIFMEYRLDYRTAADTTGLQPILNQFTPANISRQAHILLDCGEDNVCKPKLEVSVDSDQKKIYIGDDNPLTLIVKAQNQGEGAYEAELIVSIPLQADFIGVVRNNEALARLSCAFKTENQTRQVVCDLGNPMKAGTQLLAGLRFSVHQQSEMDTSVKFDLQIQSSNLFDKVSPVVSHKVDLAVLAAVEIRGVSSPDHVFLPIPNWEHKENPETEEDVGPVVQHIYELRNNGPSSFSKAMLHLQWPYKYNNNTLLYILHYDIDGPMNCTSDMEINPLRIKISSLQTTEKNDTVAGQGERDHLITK
Chain of ανβ6 (P06756 891-1048 limits assumed): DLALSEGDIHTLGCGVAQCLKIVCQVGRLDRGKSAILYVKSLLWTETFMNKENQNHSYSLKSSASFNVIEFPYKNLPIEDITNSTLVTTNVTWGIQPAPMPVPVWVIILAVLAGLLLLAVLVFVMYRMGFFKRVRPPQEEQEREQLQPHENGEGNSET
Chain of ανβ6 (P18564 22-788): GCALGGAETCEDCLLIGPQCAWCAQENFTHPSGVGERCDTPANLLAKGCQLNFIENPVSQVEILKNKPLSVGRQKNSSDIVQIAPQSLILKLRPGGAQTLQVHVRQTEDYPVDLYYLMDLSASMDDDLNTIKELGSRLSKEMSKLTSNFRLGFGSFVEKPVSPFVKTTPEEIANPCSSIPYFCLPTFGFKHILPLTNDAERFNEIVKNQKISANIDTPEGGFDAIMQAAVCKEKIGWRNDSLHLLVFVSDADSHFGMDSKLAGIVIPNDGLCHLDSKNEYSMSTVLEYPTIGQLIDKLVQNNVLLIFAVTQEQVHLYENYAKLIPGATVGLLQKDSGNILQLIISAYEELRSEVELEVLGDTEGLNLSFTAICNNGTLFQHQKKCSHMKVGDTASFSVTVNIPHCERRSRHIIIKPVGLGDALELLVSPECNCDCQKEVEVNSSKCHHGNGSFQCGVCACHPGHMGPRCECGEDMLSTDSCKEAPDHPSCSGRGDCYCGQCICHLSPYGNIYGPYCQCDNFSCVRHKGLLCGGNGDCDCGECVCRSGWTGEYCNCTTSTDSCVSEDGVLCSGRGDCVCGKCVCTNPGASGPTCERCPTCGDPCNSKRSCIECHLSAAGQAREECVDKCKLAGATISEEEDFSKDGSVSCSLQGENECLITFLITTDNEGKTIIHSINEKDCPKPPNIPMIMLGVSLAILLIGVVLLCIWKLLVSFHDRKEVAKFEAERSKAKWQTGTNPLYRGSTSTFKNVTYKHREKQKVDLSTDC

For `Cc1ccc(S(=O)(=O)N2CC(C(=O)NC(CNC(=O)CCCCc3ccc4c(n3)NCCC4)C(=O)O)C2)cc1` (racemic) [Example 1, 3-(5-(5,6,7,8-tetrahydro-1,8-naphthyridin-2-yl)pentanamido)-2-(1-(4-methylbenzenesulfonyl)azetidine-3-carboxamido)propanoic acid], the concentration for half-maximal inhibition (IC50) – broadly, the concentration that gives 50% inhibition – was under 250 nM.
The value for `O=C(CCCCc1ccc2c(n1)NCCC2)NCC(NC(=O)C1CN(S(=O)(=O)c2ccc(F)cc2)C1)C(=O)O` (racemic) [Example 2, 2-(1-(4-fluorobenzenesulfonyl)azetidine-3-carboxamido)-3-(5-(5,6,7,8-tetrahydro-1,8-naphthyridin-2-yl)pentanamido)propanoic acid] was under 250 nM; that for `Cc1ccccc1S(=O)(=O)N1CC(C(=O)NC(CNC(=O)CCCCc2ccc3c(n2)NCCC3)C(=O)O)C1` (racemic) [Example 3, 3-(5-(5,6,7,8-tetrahydro-1,8-naphthyridin-2-yl)pentanamido)-2-(1-(2-methylbenzenesulfonyl)azetidine-3-carboxamido)propanoic acid] was under 250 nM.
The value for `Cc1cccc(S(=O)(=O)N2CC(C(=O)NC(CNC(=O)CCCCc3ccc4c(n3)NCCC4)C(=O)O)C2)c1` (racemic) [Example 4, 3-(5-(5,6,7,8-tetrahydro-1,8-naphthyridin-2-yl)pentanamido)-2-(1-(3-methylbenzenesulfonyl)azetidine-3-carboxamido)propanoic acid] was under 250 nM; that for `O=C(CCCCc1ccc2c(n1)NCCC2)NCC(NC(=O)C1CN(S(=O)(=O)c2cccc(F)c2)C1)C(=O)O` (racemic) [Example 5, 2-(1-(3-fluorobenzenesulfonyl)azetidine-3-carboxamido)-3-(5-(5,6,7,8-tetrahydro-1,8-naphthyridin-2-yl)pentanamido)propanoic acid] was under 250 nM.
The result for `O=C(CCCCc1ccc2c(n1)NCCC2)NCC(NC(=O)C1CN(S(=O)(=O)c2cccc(C(F)(F)F)c2)C1)C(=O)O` (racemic) [Example 7, 3-(5-(5,6,7,8-tetrahydro-1,8-naphthyridin-2-yl)pentanamido)-2-(1-(3-(trifluoromethyl)benzenesulfonyl)azetidine-3-carboxamido)propanoic acid] reads under 250 nM; that for `O=C(CCCCc1ccc2c(n1)NCCC2)NCC(NC(=O)C1CN(S(=O)(=O)c2cccc(OC(F)(F)F)c2)C1)C(=O)O` (racemic) [Example 8, 3-(5-(5,6,7,8-tetrahydro-1,8-naphthyridin-2-yl)pentanamido)-2-(1-(3-(trifluoromethoxy)benzenesulfonyl)azetidine-3-carboxamido)propanoic acid], under 250 nM.
As for `O=C(CCCCc1ccc2c(n1)NCCC2)NCC(NC(=O)C1CN(S(=O)(=O)c2ccccc2)C1)C(=O)O` (racemic) [Example 9, 2-(1-(phenylsulfonyl)azetidine-3-carboxamido)-3-(5-(5,6,7,8-tetrahydro-1,8-naphthyridin-2-yl)pentanamido)propanoic acid], the 50% inhibitory concentration (IC50) was under 250 nM.
Consider `O=C(CCCCc1ccc2c(n1)NCCC2)NCC(NC(=O)C1CN(S(=O)(=O)c2cc(Cl)cc(Cl)c2)C1)C(=O)O` (racemic) [Example 10, 2-(1-(3,5-dichlorobenzenesulfonyl)azetidine-3-carboxamido)-3-(5-(5,6,7,8-tetrahydro-1,8-naphthyridin-2-yl)pentanamido)propanoic acid], for which the half-inhibitory concentration (IC50) is under 250 nM.
With `Cc1cc(C)cc(S(=O)(=O)N2CC(C(=O)NC(CNC(=O)CCCCc3ccc4c(n3)NCCC4)C(=O)O)C2)c1` (racemic) [Example 11, 2-(1-(3,5-dimethylbenzenesulfonyl)azetidine-3-carboxamido)-3-(5-(5,6,7,8-tetrahydro-1,8-naphthyridin-2-yl)pentanamido)propanoic acid], the half-maximal inhibitory concentration (IC50) was under 250 nM.
In the case of `CS(=O)(=O)c1cccc(S(=O)(=O)N2CC(C(=O)NC(CNC(=O)CCCCc3ccc4c(n3)NCCC4)C(=O)O)C2)c1` (racemic) [Example 12], the IC50 is under 250 nM.
